Measurements as given in PubChem BioAssay AID2060903 (Molecular Pharmacology Branch, DTP, NCI, 2025).
pIC50: −log10 of the molar value.

Tested on: 377384-186-R-J1-PDC complex spheroid viability
Test: Anticancer human tumor 377384-186-R-J1-PDC patient-derived pancreatic carcinoma cell line growth inhibition [RAS]
Conditions: for pIC50: curve of first compound; for viability, T/C: stronger effect = lower value; active means viability on the fitted dose curve at most 10% of control; inactive means the rest
In short: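 Multi-cell-type spheroids: tumor cells plus HUVEC endothelial cells and mesenchymal stem cells. RAS-pathway inhibitors were combined with targeted agents, each dosed in half-log steps down from clinical Cmax, or from 10 microM when Cmax was unknown.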

[1] = second compound 0.000949 µM, first compound 0.0316 µM
[2] = second compound 0.000949 µM, first compound 0.1 µM
[3] = second compound 0.000949 µM, first compound 0.316 µM
[4] = second compound 0.000949 µM, first compound 1 µM
[5] = second compound 0.003 µM, first compound 0.0316 µM
[6] = second compound 0.003 µM, first compound 0.1 µM
[7] = second compound 0.003 µM, first compound 0.316 µM
[8] = second compound 0.003 µM, first compound 1 µM
[9] = second compound 0.00949 µM, first compound 0.0316 µM
[10] = second compound 0.00949 µM, first compound 0.1 µM
[11] = second compound 0.00949 µM, first compound 0.316 µM
[12] = second compound 0.00949 µM, first compound 1 µM
[13] = second compound 0.03 µM, first compound 0.0316 µM
[14] = second compound 0.03 µM, first compound 0.1 µM
[15] = second compound 0.03 µM, first compound 0.316 µM
[16] = second compound 0.03 µM, first compound 1 µM
[17] = second compound 0.0949 µM, first compound 0.0316 µM
[18] = second compound 0.0949 µM, first compound 0.1 µM
[19] = second compound 0.0949 µM, first compound 0.316 µM
[20] = second compound 0.0949 µM, first compound 1 µM
[21] = second compound 0.3 µM, first compound 0.0316 µM
[22] = second compound 0.3 µM, first compound 0.1 µM
[23] = second compound 0.3 µM, first compound 0.316 µM
[24] = second compound 0.3 µM, first compound 1 µM
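Further: spheroids exposed to compounds for seven days before readout.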

O=C(c1ccc(F)c(F)c1Nc1ccc(I)cc1F)N1CC(O)([C@@H]2CCCCN2)C1 + CCn1c(-c2cc(N3CCN(C)CC3)cnc2C(C)OC)c2c3cc(ccc31)-c1csc(n1)CC(NC(=O)C1CC1C)C(=O)N1CCCC(N1)C(=O)OCC(C)(C)C2
> 8.50: pIC50 (second compound 0.000949 µM) | pIC50 (second compound 0.003 µM) | pIC50 (second compound 0.00949 µM) | pIC50 (second compound 0.03 µM) | pIC50 (second compound 0.0949 µM) | pIC50 (second compound 0.3 µM)
active: viability, T/C [2] 2.04% | viability, T/C [3] 0.28% | viability, T/C [4] 0.8% | viability, T/C (second compound 0.003 µM, first compound 0.01 µM) 4.75% | viability, T/C [5] 3.32% | viability, T/C [6] 1.15% | viability, T/C [7] 0.17% | viability, T/C [8] 0.13% | viability, T/C (second compound 0.00949 µM, first compound 0.00316 µM) 3.22% | viability, T/C (second compound 0.00949 µM, first compound 0.01 µM) 2.06% | viability, T/C [9] 1.32% | viability, T/C [10] 0.24% | viability, T/C [11] 0.08% | viability, T/C [12] 0.13% | viability, T/C (second compound 0.03 µM, first compound 0.00316 µM) 2.61% | viability, T/C (second compound 0.03 µM, first compound 0.01 µM) 1.37% | viability, T/C [13] 0.71% | viability, T/C [14] 0.07% | viability, T/C [15] 0.12% | viability, T/C [16] 0.09% | viability, T/C (second compound 0.0949 µM, first compound 0.00316 µM) 1.11% | viability, T/C (second compound 0.0949 µM, first compound 0.01 µM) 0.96% | viability, T/C [17] 0.28% | viability, T/C [18] 0.12% | viability, T/C [19] 0.15% | viability, T/C [20] 0.18% | viability, T/C (second compound 0.3 µM, first compound 0.00316 µM) 1.01% | viability, T/C (second compound 0.3 µM, first compound 0.01 µM) 1.34% | viability, T/C [21] 0.16% | viability, T/C [22] 0.2% | viability, T/C [23] 0.28% | viability, T/C [24] 0.18%
inactive: viability, T/C (second compound 0.000949 µM, first compound 0.00316 µM) 40.6% | viability, T/C (second compound 0.000949 µM, first compound 0.01 µM) 28.1% | viability, T/C [1] 9.77% | viability, T/C (second compound 0.003 µM, first compound 0.00316 µM) 16.4%

CC1(O)CCCC1n1c(=O)c(C(F)F)cc2cnc(NC3CCN(S(C)(=O)=O)CC3)nc21 (stereo unspecified) + C#Cc1c(F)ccc2cc(O)cc(-c3ncc4c(N5CC6CCC(C5)N6)nc(OCC56CCCN5CC(F)C6)nc4c3F)c12
> 7.50: pIC50 (second compound 0.0316 µM) | pIC50 (second compound 0.1 µM) | pIC50 (second compound 0.316 µM) | pIC50 (second compound 1 µM) | pIC50 (second compound 3.16 µM) | pIC50 (second compound 10 µM)
inactive: viability, T/C (second compound 0.0316 µM, first compound 0.0316 µM) 15.5% | viability, T/C (second compound 0.0316 µM, first compound 0.1 µM) 12.7% | viability, T/C (second compound 0.0316 µM, first compound 0.316 µM) 10% | viability, T/C (second compound 0.0316 µM, first compound 1 µM) 11.7% | viability, T/C (second compound 0.0316 µM, first compound 3.16 µM) 16%
active: viability, T/C (second compound 0.0316 µM, first compound 10 µM) 5.41% | viability, T/C (second compound 0.1 µM, first compound 0.0316 µM) 8.93% | viability, T/C (second compound 0.1 µM, first compound 0.1 µM) 6.57% | viability, T/C (second compound 0.1 µM, first compound 0.316 µM) 6.54% | viability, T/C (second compound 0.1 µM, first compound 1 µM) 7.97% | viability, T/C (second compound 0.1 µM, first compound 3.16 µM) 9.01% | viability, T/C (second compound 0.1 µM, first compound 10 µM) 4.92% | viability, T/C (second compound 0.316 µM, first compound 0.0316 µM) 5.04% | viability, T/C (second compound 0.316 µM, first compound 0.1 µM) 3.52% | viability, T/C (second compound 0.316 µM, first compound 0.316 µM) 3.71% | viability, T/C (second compound 0.316 µM, first compound 1 µM) 4.22% | viability, T/C (second compound 0.316 µM, first compound 3.16 µM) 6.59% | viability, T/C (second compound 0.316 µM, first compound 10 µM) 5.41% | viability, T/C (second compound 1 µM, first compound 0.0316 µM) 2.55% | viability, T/C (second compound 1 µM, first compound 0.1 µM) 2.39% | viability, T/C (second compound 1 µM, first compound 0.316 µM) 2.88% | viability, T/C (second compound 1 µM, first compound 1 µM) 3.55% | viability, T/C (second compound 1 µM, first compound 3.16 µM) 4.3% | viability, T/C (second compound 1 µM, first compound 10 µM) 5.91% | viability, T/C (second compound 3.16 µM, first compound 0.0316 µM) 2% | viability, T/C (second compound 3.16 µM, first compound 0.1 µM) 2.27% | viability, T/C (second compound 3.16 µM, first compound 0.316 µM) 3.01% | viability, T/C (second compound 3.16 µM, first compound 1 µM) 3.27% | viability, T/C (second compound 3.16 µM, first compound 3.16 µM) 3.34% | viability, T/C (second compound 3.16 µM, first compound 10 µM) 6.51% | viability, T/C (second compound 10 µM, first compound 0.0316 µM) 1.76% | viability, T/C (second compound 10 µM, first compound 0.1 µM) 1.46% | viability, T/C (second compound 10 µM, first compound 0.316 µM) 1.91% | viability, T/C (second compound 10 µM, first compound 1 µM) 2% | viability, T/C (second compound 10 µM, first compound 3.16 µM) 1.28% | viability, T/C (second compound 10 µM, first compound 10 µM) 2.73%

CC1(O)CCCC1n1c(=O)c(C(F)F)cc2cnc(NC3CCN(S(C)(=O)=O)CC3)nc21 (stereo unspecified) + CCn1c(-c2cccnc2C(C)OC)c2c3cc(ccc31)N1CCOC(CC(NC(=O)C(C(C)C)N(C)C(=O)C3(F)CCN(C(=O)C#CC(C)(C)N(C)C)CC3)C(=O)N3CCCC(N3)C(=O)OCC(C)(C)C2)C1
6.98: pIC50 (second compound 0.003 µM)
inactive: viability, T/C [1] 79.6% | viability, T/C [2] 46.6% | viability, T/C [3] 28.9% | viability, T/C [4] 28.6% | viability, T/C (second compound 0.000949 µM, first compound 3.16 µM) 35.1% | viability, T/C (second compound 0.000949 µM, first compound 10 µM) 9.26% | viability, T/C [5] 76.8% | viability, T/C [6] 52.7% | viability, T/C [7] 28.8% | viability, T/C [8] 26.6% | viability, T/C (second compound 0.003 µM, first compound 3.16 µM) 34.8% | viability, T/C (second compound 0.003 µM, first compound 10 µM) 8.79% | viability, T/C [9] 84.6% | viability, T/C [10] 55.6% | viability, T/C [11] 27% | viability, T/C [12] 29.7% | viability, T/C (second compound 0.00949 µM, first compound 3.16 µM) 36% | viability, T/C (second compound 0.00949 µM, first compound 10 µM) 7.91% | viability, T/C [13] 67.4% | viability, T/C [14] 52.6% | viability, T/C [15] 24.9% | viability, T/C [16] 21.5% | viability, T/C (second compound 0.03 µM, first compound 3.16 µM) 34.7% | viability, T/C (second compound 0.03 µM, first compound 10 µM) 7.53% | viability, T/C [17] 71.3% | viability, T/C [18] 46.5% | viability, T/C [19] 23.9% | viability, T/C [20] 22.2% | viability, T/C (second compound 0.0949 µM, first compound 3.16 µM) 33.4% | viability, T/C (second compound 0.0949 µM, first compound 10 µM) 6.19% | viability, T/C [21] 68% | viability, T/C [22] 37.7% | viability, T/C [23] 18.6% | viability, T/C [24] 22.7% | viability, T/C (second compound 0.3 µM, first compound 3.16 µM) 34.7% | viability, T/C (second compound 0.3 µM, first compound 10 µM) 5.35%
7.20: pIC50 (second compound 0.3 µM)
7.04: pIC50 (second compound 0.000949 µM)
6.95: pIC50 (second compound 0.03 µM)
6.91: pIC50 (second compound 0.00949 µM)
7.11: pIC50 (second compound 0.0949 µM)
